# In patent publication US20230398130A1, “METHODS AND COMPOSITIONS FOR DIFFERENTIATING STEM CELLS” (Massachusetts Institute of Technology, priority 2020, published 2023):
# How the values were obtained:
# [1] = system: ISC-enriched organoids; test: Primary screen, 384-well 2.5-D organoid differentiation (ENR+CD, 6 days): carbachol-induced lysozyme secretion (LYZ.S); assay type: cell-based, murine; settings: for Z.LYZ.S: standard z score; for SSMD.LYZ.S: strictly standardized mean difference; for Dose.FC.LYZ.S: FC vs plate median
# From the text: (§1) High-throughput screening.
# [2] = system: ISC-enriched organoids; test: Primary screen, 384-well 2.5-D organoid differentiation (ENR+CD, 6 days): basal lysozyme secretion (LYZ.NS); assay type: cell-based, murine; settings: for SSMD.LYZ.NS: strictly standardized mean difference; for Dose.FC.LYZ.NS: FC vs plate median; for Z.LYZ.NS: standard z score of FC
# From the text: as §1
# [3] = system: ISC-enriched organoids; test: Primary screen, 384-well 2.5-D organoid differentiation (ENR+CD, 6 days, Target Selective Inhibitor Library, vs whole-plate median): ATP (CellTiter-Glo 3D, CTG); settings: for SSMD.CTG: strictly standardized mean difference; for Dose.FC.CTG: FC vs plate median
# [4] = primary screen, 1st of the 4 dose lines of the treatment (dose not given)
# [5] = primary screen, 2nd of the 4 dose lines of the treatment (dose not given)
# [6] = primary screen, 3rd of the 4 dose lines of the treatment (dose not given)
# [7] = primary screen, 4th of the 4 dose lines of the treatment (dose not given)
# [8] = Dose 0.08 uM, standard z score of FC
# [9] = Dose 0.40 uM, standard z score of FC
# [10] = Dose 2.00 uM, standard z score of FC
# [11] = Dose 10.00 uM, standard z score of FC
Structure (SMILES),"Dose.FC.LYZ.S ([1]; Dose 0.08 uM, primary screen)","Dose.FC.LYZ.S ([1]; Dose 0.40 uM, primary screen)","Dose.FC.LYZ.S ([1]; Dose 2.00 uM, primary screen)","Dose.FC.LYZ.S ([1]; Dose 10.00 uM, primary screen)","Dose.FC.LYZ.NS ([2]; Dose 0.08 uM, primary screen)",Z.LYZ.NS ([2]; Dose 0.08 uM),"Dose.FC.LYZ.NS ([2]; Dose 0.40 uM, primary screen)",Z.LYZ.NS ([2]; Dose 0.40 uM),"Dose.FC.LYZ.NS ([2]; Dose 2.00 uM, primary screen)",Z.LYZ.NS ([2]; Dose 2.00 uM),"Dose.FC.LYZ.NS ([2]; Dose 10.00 uM, primary screen)",Z.LYZ.NS ([2]; Dose 10.00 uM),"Dose.FC.CTG ([3]; Dose 0.08 uM, primary screen)","Z.CTG [3, 8]","Dose.FC.CTG ([3]; Dose 0.40 uM, primary screen)","Z.CTG [3, 9]","Dose.FC.CTG ([3]; Dose 2.00 uM, primary screen)","Z.CTG [3, 10]","Dose.FC.CTG ([3]; Dose 10.00 uM, primary screen)","Z.CTG [3, 11]",other results
CCN1CCC[C@H]1CNC(=O)c1cc(S(N)(=O)=O)ccc1OC [Levosulpiride],–,–,–,–,–,–,–,–,–,–,–,–,–,–,–,–,–,–,–,–,"Z.LYZ.S [1, 4]: −0.108; Z.LYZ.S [1, 5]: 0.830; Z.LYZ.S [1, 6]: 0.800; Z.LYZ.S [1, 7]: −0.168; SSMD.LYZ.S [1, 4]: −0.076; SSMD.LYZ.S [1, 5]: 0.774; SSMD.LYZ.S [1, 6]: 0.531; SSMD.LYZ.S [1, 7]: −0.154; SSMD.LYZ.NS [2, 4]: 0.092; SSMD.LYZ.NS [2, 5]: 0.226; SSMD.LYZ.NS [2, 6]: 0.501; SSMD.LYZ.NS [2, 7]: −0.195; Z.CTG ([3]; Dose 0.08 uM, primary screen, standard z score): −0.102; Z.CTG ([3]; Dose 0.40 uM, primary screen, standard z score): −0.015; Z.CTG ([3]; Dose 2.00 uM, primary screen, standard z score): 0.074; Z.CTG ([3]; Dose 10.00 uM, primary screen, standard z score): 0.215; SSMD.CTG [3, 4]: −0.129; SSMD.CTG [3, 5]: −0.019; SSMD.CTG [3, 6]: 0.087; SSMD.CTG [3, 7]: 0.297"
CCN(CC)CCCC(C)Nc1nc(C)cc(Nc2ccc3nc(C)cc(N)c3c2)n1 (stereo not drawn) [NSC 23766],0.080 log 2 fold change,0.090 log 2 fold change,0.031 log 2 fold change,0.030 log 2 fold change,0.081 log 2 fold change,0.701,0.044 log 2 fold change,0.380,0.058 log 2 fold change,0.506,0.009 log 2 fold change,0.080,0.043 log 2 fold change,0.103,0.170 log 2 fold change,0.406,0.117 log 2 fold change,0.279,0.324 log 2 fold change,0.774,–
COc1cccc(C=NCCN=Cc2cccc(OC)c2[O-])c1[O-].[Cl-].[Mn+3] [EUK 134],–,–,–,–,–,0.594,–,0.026,–,0.247,–,−0.741,–,−0.035,–,−0.387,–,0.217,–,−0.057,"Dose.FC.LYZ.S ([1]; Dose 0.08 uM, ENR+CD, 6 days): 0.025 log 2 fold change; Dose.FC.LYZ.S ([1]; Dose 0.40 uM, ENR+CD, 6 days): 0.057 log 2 fold change; Dose.FC.LYZ.S ([1]; Dose 2.00 uM, ENR+CD, 6 days): −0.034 log 2 fold change; Dose.FC.LYZ.S ([1]; Dose 10.00 uM, ENR+CD, 6 days): −0.132 log 2 fold change; Dose.FC.LYZ.NS ([2]; Dose 0.08 uM, ENR+CD, 6 days): 0.068 log 2 fold change; Dose.FC.LYZ.NS ([2]; Dose 0.40 uM, ENR+CD, 6 days): 0.003 log 2 fold change; Dose.FC.LYZ.NS ([2]; Dose 2.00 uM, ENR+CD, 6 days): 0.028 log 2 fold change; Dose.FC.LYZ.NS ([2]; Dose 10.00 uM, ENR+CD, 6 days): −0.085 log 2 fold change; Dose.FC.CTG ([3]; Dose 0.08 uM, ENR+CD, 6 days): −0.015 log 2 fold change; Dose.FC.CTG ([3]; Dose 0.40 uM, ENR+CD, 6 days): −0.162 log 2 fold change; Dose.FC.CTG ([3]; Dose 2.00 uM, ENR+CD, 6 days): 0.091 log 2 fold change; Dose.FC.CTG ([3]; Dose 10.00 uM, ENR+CD, 6 days): −0.024 log 2 fold change"
Cc1ccc(S(=O)(=O)NC(=O)NN2CC3CCCC3C2)cc1 (stereo not drawn) [Gliclazide],–,–,–,–,–,–,–,–,–,–,–,–,–,0.386,–,0.128,–,0.020,–,−0.219,"Dose.FC.LYZ.S ([1]; Dose 10.00 uM, ENR+CD, 6 days): −0.060 log 2 fold change; Dose.FC.LYZ.NS ([2]; Dose 10.00 uM, ENR+CD, 6 days): −0.035 log 2 fold change; Dose.FC.CTG ([3]; Dose 10.00 uM, ENR+CD, 6 days): −0.092 log 2 fold change"
S=C=Nc1cccc(NC(=S)NCCCCNC(=S)Nc2cccc(N=C=S)c2)c1 [MRS 2578],0.095 log 2 fold change,0.067 log 2 fold change,0.023 log 2 fold change,0.013 log 2 fold change,0.116 log 2 fold change,1.011,0.036 log 2 fold change,0.311,0.031 log 2 fold change,0.270,0.032 log 2 fold change,0.276,−0.142 log 2 fold change,−0.339,0.061 log 2 fold change,0.146,−0.159 log 2 fold change,−0.381,−0.228 log 2 fold change,−0.544,–
